No end group written: not given here.
Assays:
[1] = system: Mgpp3 murine proneural glioma cells; assay: Cell number after peptide treatment, Mgpp3; assay type: cell-based; details: 6 days, 0 μM to 50 μM; stock without BSA
Procedure: Replicate cultures were exposed to the peptides the for 6 days at the indicated concentrations. Stock solutions of the peptides were prepared in buffer without added bovine serum albumin (BSA).

[2] = system: MCF10A non-cancer human breast epithelial cells; assay: Cell number after peptide treatment, MCF10A; assay type: cell-based; details: 6 days, 0 μM to 50 μM; stock without BSA
Procedure: Replicate cultures of HIEC-6 non-cancer human intestinal epithelial cells, MCF10A non-cancer human breast epithelial cells, or normal human astrocytes were exposed to CP-DN-CEBPB or CP-DN-CEBPD, for 6 days at doses of 0 μM to 50 μM. […] Stock solutions of the peptides were prepared in buffer without added bovine serum albumin (BSA).

HCT116 cells = assay: Colony forming activity in soft agar, HCT116; assay type: cell-based; details: 6 days; doses 0.05, 0.5 and 5 μM
Procedure: T98G (FIG. 21A), MDA-MB 231 (FIG. 21B), and HCT116 (FIG. 21C) cells were exposed to CP-DN-CEBPB and CP-DN-CEBPD for 6 days at doses of 0.05 μM 0.5 μM, and 5 μM while growing in soft agar. Growth was inhibited by does as low as 0.5 μM. T98G (FIG. 21D), MDA-MB 231 (FIG. 21E), and HCT116 (FIG. 21F) cells were exposed to CP-DN-CEBPB and CP-DN-CEBPD for 6 days at doses of 0.05 μM 0.5 μM, and 5 μM while growing on culture plates. Growth was inhibited by does as low as 0.5 μM.

[3] = system: HIEC-6 non-cancer human intestinal epithelial cells; assay: Morphology after peptide treatment, HIEC-6; assay type: cell-based; details: 5 to 6 days, 20 μM or 50; stock without BSA
Procedure: (§1) Stock solutions of the peptides were prepared in buffer without added bovine serum albumin (BSA).

[4] = system: MCF10A non-cancer human breast epithelial cells; assay: Morphology after peptide treatment, MCF10A; assay type: cell-based; details: 5 to 6 days, 20 μM or 50; stock without BSA
Procedure: as §1

human astrocytes = assay: Morphology after peptide treatment, astrocytes; assay type: cell-based; details: 6 days, 0 μM or 50 μM; stock without BSA
Procedure: Replicate cultures of human astrocytes were exposed to CP-DN-CEBPB or CP-DN-CEBPD for 6 days at final concentrations of 0 μM or 50 μM. […] Stock solutions of the peptides were prepared in buffer without added bovine serum albumin (BSA).

T98G cells = assay: Combination with paclitaxel, cell number, T98G; assay type: cell-based; details: 1 nM or 5 nM paclitaxel and 3, 10 or 20 μM peptide, 6 days
Procedure: (§2) Replicate cultures of T98G, MDA-MB 231, and MCF7 cells were treated with 1 nM or 5 nM paclitaxel and 3 μM, 10 μM, or 20 μM CP-dn-CEBPB and CP-dn-CEBPD peptides, maintained for 6 days, and then assessed for cell number. The bar graphs of FIGS. 26A (T98G, CP-dn-CEBPB), 26C (T98G, CP-dn-CEBPBD, 26E (MDA-MB-231, CP-dn-CEBPBD), 26G (MDA-MB-231, CP-dn-CEBPD), 26I (MCF7, CP-dn-CEBPBB), and 26K (MCF7, CP-dn-CEBPBD) show relative cell numbers for each condition as compared to untreated controls. The line graphs of FIGS. 26B (T98G, CP-dn-CEBPB), 26D (T98G, CP-dn-CEBPBD), 26F (MDA-MB-231, CP-dn-CEBPB), 26H (MDA-MB-231, CP-dn-CEBPD), 26J (MCF7, CP-dn-CEBPB), and 26L (MCF7 CP-dn-CEBPBD) show the response as normalized in each case so that 100 represents the relative number of surviving cells that received the indicated level of paclitaxel, but no peptide treatment. Calculated combination indices (CI) were as follows: MCF7: CI=0.41±0.04 for CP-dn-CEBPB; 0.44±0.04 for CP-dn-CEBPD; MDA-MB-231: 0.74±0.03 for CP-dn-CEBPB; 0.74±0.05 for CP-dn-CEBPD; T98G: CI=0.84±0.06 for CP-dn-CEBPB and 0.75±0.07 for CP-dn-CEBPD.

MDA-MB-231 cells = assay: Combination with paclitaxel, cell number, MDA-MB-231; assay type: cell-based; details: 1 nM or 5 nM paclitaxel and 3, 10 or 20 μM peptide, 6 days
Procedure: as §2

[5] = system: MDA-MB 231, HCT116, and A375 cells; assay: Peptide treatment after doxorubicin pre-treatment, cell number; assay type: cell-based; details: for sensitivity of cells to peptide with or without doxorubicin pre-treatment: 100 nM doxorubicin 24 hours, then 1, 3, 10 or 20 μM peptide, 6 days; for effect on reversibly non-growing or slow-growing cancer cells: after pre-treatment with 100 nM doxorubicin for 24 hours
Procedure: Replicate cultures of MDA-MB 231, HCT116, and A375 cells were pretreated with 100 nM doxorubicin for 24 hours, and then treated with 1 μM, 3 μM, 10 μM, or 20 μM CP-dn-CEBPB and CP-dn-CEBPD peptides, maintained for 6 days, and then assessed for cell number. The bar graphs of FIGS. 31A (MDA-MB 231, CP-dn-CEBPB), 31C (MDA-MB 231, CP-dn-CEBPBD, 31E (HCT116, CP-dn-CEBPBD), 31G (HCT116, CP-dn-CEBPD), 31I (A375, CP-dn-CEBPBB), and 31K (A375, CP-dn-CEBPBD) show relative cell numbers for each condition as compared to untreated controls. The line graphs of FIGS. 31B (MDA-MB 231, CP-dn-CEBPB), 31D (MDA-MB 231, CP-dn-CEBPBD), 31F (HCT116, CP-dn-CEBPB), 31H (HCT116, CP-dn-CEBPD), 31J (A375, CP-dn-CEBPB), and 31L (A375, CP-dn-CEBPBD) show the response as normalized in each case so that 100 represents the relative number of surviving cells that received the indicated level of doxorubicin, but no peptide treatment.

A375 cells = assay: A375 subcutaneous tumors, 10 or 20 mg/kg study; assay type: in vivo, NCR nude mice; details: 10 or 20 mg/kg intraperitoneally; for tumor growth (calculated tumor volumes): to day 24
Procedure: A375 cells were subcutaneously implanted in the flanks of NCR nude mice. After tumors had formed, the animals were treated intraperitoneally with 10 or 20 mg/kg of CP-dn-CEBPB, CP-dn-CEBPD or vehicle as indicated in the schema shown in FIG. 37A. Animal weight was monitored (FIG. 37B). Tumor sizes were measured and volumes calculated on each day of injection. […] FIG. 37D compares calculated individual and mean tumor volumes for vehicle, CP-dn-CEBPB and CP-dn-CEBPD treated animals on day 24.

Sequence	growth and survival of Mgpp3 cells [1]	number of MCF10A cells [2]	lowest dose at which growth was inhibited, soft agar (HCT116 cells) [µM]	morphology of HIEC-6 cells [3]	morphology of MCF10A cells [4]	morphology of human astrocytes (human astrocytes)	combination index (CI) with paclitaxel (T98G cells)	combination index (CI) with paclitaxel (MDA-MB-231 cells)	sensitivity of cells to peptide with or without doxorubicin pre-treatment [5]	effect on reversibly non-growing or slow-growing cancer cells [5]	side effects (animal weight monitored) (A375 cells)	tumor growth (calculated tumor volumes) (A375 cells)
RQIKIWFQNRRMKWKKLETQHKVLELTAENERLQKKVEQLSRELSTLRNLFKQL [CP-DN-CEBPB]	decrease in growth and survival	did not cause a dose-dependent decrease	0.5	did not affect the morphology	did not affect the morphology	did not affect the morphology	0.84±0.06	0.74±0.03	retain similar sensitivity	effective to treat reversibly non-growing or slow-growing cancer cells	no apparent side effects	suppressed tumor growth
RQIKIWFQNRRMKWKKLVELSAENEKLHQRVEQLTRDLAGLRQFFK [CP-DN-CEBPD]	decrease in growth and survival	did not cause a dose-dependent decrease	0.5	did not affect the morphology	did not affect the morphology	did not affect the morphology	0.75±0.07	0.74±0.05	retain similar sensitivity	effective to treat reversibly non-growing or slow-growing cancer cells	no apparent side effects	suppressed tumor growth

— patent US12428455B2, “Dominant negative CEBPB and CEBPD proteins and methods of use for decreasing viability of neoplastic cells” (The Trustees of Columbia University in the City of New York, priority 2018, dated 2025)
